Source: patent US4515980A, “Substituted aminobenzoates, their preparation and use” (Sterling Drug Inc., priority 1983, dated 1985)
Where two headings read alike, the source gives them in different places. Values belong to the molecule of their own block, whether it stands above or below them.

Experiments:
cyclooxygenase = biological target: T1, cyclooxygenase (Rattus norvegicus, UniProt Q63921); assay: Inhibition of cyclooxygenase derived from rat basophilic leukemia (RBL-1) cells, formation of product PDG2 (C1); assay type: biochemical; conditions: RBL-1 homogenate; for IC50: C1, PDG2; for inhibition at 1 µM: dose of 1 μM, 5 min preincubation, 15 min incubation at 37° C, read-out: In vitro % Inhibition, C1 (cyclooxygenase product formation)
T1 construct: Single cell suspensions of RBL-1 cells are homogenized to obtain the microsomal fraction containing lipoxygenase and cyclooxygenase; endogenous in cells; host or cells: RBL-1 (rat basophilic leukemia) cells, homogenate / microsomal fraction
T1 sequence (Q63921 27-602): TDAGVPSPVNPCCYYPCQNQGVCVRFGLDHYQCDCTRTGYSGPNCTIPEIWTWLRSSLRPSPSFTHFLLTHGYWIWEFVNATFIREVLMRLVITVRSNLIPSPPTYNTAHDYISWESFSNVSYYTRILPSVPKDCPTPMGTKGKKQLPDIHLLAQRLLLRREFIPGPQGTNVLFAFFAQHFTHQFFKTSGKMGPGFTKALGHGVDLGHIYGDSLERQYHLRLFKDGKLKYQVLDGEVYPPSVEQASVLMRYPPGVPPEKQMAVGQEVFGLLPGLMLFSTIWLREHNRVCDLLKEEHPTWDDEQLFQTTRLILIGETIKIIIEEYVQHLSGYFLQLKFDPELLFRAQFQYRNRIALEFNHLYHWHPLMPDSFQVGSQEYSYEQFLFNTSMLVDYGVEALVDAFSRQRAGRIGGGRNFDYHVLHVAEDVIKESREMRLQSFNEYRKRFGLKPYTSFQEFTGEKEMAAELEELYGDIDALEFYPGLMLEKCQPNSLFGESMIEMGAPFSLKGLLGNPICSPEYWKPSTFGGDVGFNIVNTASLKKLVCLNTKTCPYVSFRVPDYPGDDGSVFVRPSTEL
Procedure: (§1) The primary screening test used is a determination of the inhibition of lipoxygenase and cyclooxygenase derived from rat basophilic leukemia (RBL-1) cells. The test was carried out according to the following procedure:
(§2) Single cell suspensions of RBL-1 cells are homogenized to obtain the microsomal fraction containing lipoxygenase and cyclooxygenase. Test compounds are added to the enzyme-containing homogenate for a 5 min preincubation period at 37° C. prior to the addition of ^14 C-arachidonic acid substrate. Following incubation at 37° C. for 15 min, the reaction is stopped by the addition of 2M formic acid and the enzyme-substrate products are extracted into chloroform. An aliquot of the extract is evaporated to dryness, reconstituted in ether to 1/10 original volume, spotted on thin layer chromatography plates and chromatographed. The peak areas of radioactivity representing the products are located by scanning the plates. The quantity of products formed is estimated by measuring the height of the radioactivity peaks observed on the chromatographic scans. Alternatively, the areas of radioactivity are scraped from the plate and the ^14 C quantitated by scintillation counting.

lipoxygenase = biological target: T2, lipoxygenase (Rattus norvegicus, UniProt P12527); assay: Inhibition of lipoxygenase derived from rat basophilic leukemia (RBL-1) cells, formation of products 5,12-di-HETE (L1) and 5-HETE (L2); assay type: biochemical
T2 construct: Single cell suspensions of RBL-1 cells are homogenized to obtain the microsomal fraction containing lipoxygenase and cyclooxygenase; endogenous in cells; host or cells: RBL-1 (rat basophilic leukemia) cells, homogenate / microsomal fraction
T2 sequence (P12527 1-673): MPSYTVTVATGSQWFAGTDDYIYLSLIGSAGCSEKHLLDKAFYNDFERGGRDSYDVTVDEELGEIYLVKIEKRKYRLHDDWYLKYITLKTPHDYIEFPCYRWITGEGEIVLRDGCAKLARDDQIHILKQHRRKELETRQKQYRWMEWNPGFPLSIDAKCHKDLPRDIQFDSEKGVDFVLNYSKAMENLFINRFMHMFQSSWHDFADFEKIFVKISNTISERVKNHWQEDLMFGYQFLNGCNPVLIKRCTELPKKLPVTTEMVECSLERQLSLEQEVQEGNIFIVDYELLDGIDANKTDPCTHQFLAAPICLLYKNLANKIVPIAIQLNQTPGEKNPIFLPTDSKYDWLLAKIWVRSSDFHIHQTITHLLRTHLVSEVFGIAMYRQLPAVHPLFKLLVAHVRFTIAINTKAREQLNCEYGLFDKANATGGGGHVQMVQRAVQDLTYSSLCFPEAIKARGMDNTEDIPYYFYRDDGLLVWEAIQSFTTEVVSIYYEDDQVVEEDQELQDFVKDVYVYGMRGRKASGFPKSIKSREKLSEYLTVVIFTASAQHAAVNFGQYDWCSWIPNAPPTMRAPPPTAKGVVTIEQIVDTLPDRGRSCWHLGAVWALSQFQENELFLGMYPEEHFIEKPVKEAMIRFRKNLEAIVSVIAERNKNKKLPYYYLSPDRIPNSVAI
Procedure: as §1, §2

[1] = system: STS-A component of immunologically induced bronchoconstriction; assay: Effect on the STS-A component of immunologically induced bronchoconstriction in guinea pigs; assay type: in vivo; conditions: 4 hrs., at 1 mg/kg orally, indomethacin + chlorpheniramine medicated, antigen challenge
Procedure: The test was carried out according to the following procedure:
Two weeks after immunization with egg albumin, guinea pigs are prepared for bronchoconstriction determination. One hour prior to antigen challenge, each animal is dosed orally with indomethacin and chlorpheniramine. Animals are anesthetized with sodium pentobarbital, the trachea cannulated and the animal artifically respired. Arachidonic acid is administered intravenously prior to antigen challenge. The resulting bronchoconstriction is recorded by the standard lung overflow procedure and the peak increase in intratracheal pressure (mm Hg) over a 10 minute observation period is recorded. Compounds are evaluated for their ability to prevent the increased intratracheal pressure in an experimental group of animals as compared to the medicated (indomethacin+chlorpheniramine+arachidonic acid) control group. The results are expressed in terms of percent inhibition or as ED50 values (efffective dose in 50% of the animals).

[2] = IC50, L1 (lipoxygenase product 5,12-di-HETE formation), L1, 5,12-di-HETE, RBL-1 homogenate
[3] = IC50, L2 (lipoxygenase product 5-HETE formation), L2, 5-HETE, RBL-1 homogenate
[4] = read-out: In vitro % Inhibition, L1 (lipoxygenase product 5,12-di-HETE formation)
[5] = read-out: In vitro % Inhibition, L2 (lipoxygenase product 5-HETE formation)

SMILES: CCOC(=O)c1ccccc1Nc1ccccc1O [Example 1d, Ethyl 2-(2-hydroxyphenylamino)benzoate]
- IC50 (cyclooxygenase): 320 nM
- inhibition at 1 µM (cyclooxygenase): 34%
- IC50 (lipoxygenase; [2]): 160 nM
- IC50 (lipoxygenase; [3]): 100 nM
- inhibition at 1 µM (lipoxygenase; [4]): 95%
- inhibition at 1 µM (lipoxygenase; [5]): 98%

SMILES: CCOC(=O)c1ccccc1Nc1ccc(O)cc1 [Example 2b, Ethyl 2-(4-hydroxyphenylamino)benzoate]
- IC50 (cyclooxygenase): > 1000 nM
- inhibition at 1 µM (cyclooxygenase): 19%
- IC50 (lipoxygenase; [2]): 340 nM
- IC50 (lipoxygenase; [3]): 250 nM
- inhibition at 1 µM (lipoxygenase; [4]): 77%
- inhibition at 1 µM (lipoxygenase; [5]): 93%
- In vivo Guinea Pig % inhib. (increased intratracheal pressure, bronchoconstriction) [1]: 38%

SMILES: CCOC(=O)c1cc(OC)ccc1Nc1ccc(O)cc1 [Example 3d, Ethyl 2-(4-hydroxyphenylamino)-5-methoxybenzoate]
- IC50 (cyclooxygenase): > 1000 nM
- inhibition at 1 µM (cyclooxygenase): 18%
- IC50 (lipoxygenase; [2]): 110 nM
- IC50 (lipoxygenase; [3]): 100 nM
- inhibition at 1 µM (lipoxygenase; [4]): 90%
- inhibition at 1 µM (lipoxygenase; [5]): 91%
- In vivo Guinea Pig % inhib. (increased intratracheal pressure, bronchoconstriction) [1]: 42%

- inhibition at 1 µM (cyclooxygenase): 0%
- inhibition at 1 µM (lipoxygenase; L1, 5,12-di-HETE, dose of 1 μM, RBL-1 homogenate, 5 min preincubation, 15 min incubation at 37° C, read-out: In vitro % Inhibition, L1 (lipoxygenase product 5,12-di-HETE formation)): 60%
- inhibition at 1 µM (lipoxygenase; L2, 5-HETE, dose of 1 μM, RBL-1 homogenate, 5 min preincubation, 15 min incubation at 37° C, read-out: In vitro % Inhibition, L2 (lipoxygenase product 5-HETE formation)): 76%
SMILES: CCOC(=O)c1ccccc1Nc1ccc(O)cc1C [Example 4c, Ethyl 2-(4-hydroxy-2-methylphenylamino)benzoate]

SMILES: CCOC(=O)c1ccccc1Nc1ccc(O)c(Cl)c1 [Example 5c, Ethyl 2-(3-chloro-4-hydroxyphenylamino)benzoate]
- IC50 (cyclooxygenase): > 1000 nM
- inhibition at 1 µM (cyclooxygenase): 26%
- IC50 (lipoxygenase; [2]): 670 nM
- IC50 (lipoxygenase; [3]): 300 nM
- inhibition at 1 µM (lipoxygenase; [4]): 90%
- inhibition at 1 µM (lipoxygenase; [5]): 99%
